Assay results reported in US6960614B2, “Oxygenated esters of 4-lodo phenylamino benzhydroxamic acids” (Warner-Lambert Company, priority 2000, dated 2005).
Counter-ions that a name gives are not always drawn.

System: MEK
Assay: Cellular Assay for Measuring MEK Inhibition (inhibition of ERK phosphorylation in C26 cells, Western blot)
Format: cell-based, murine
Details: for IC50: inhibition of ERK phosphorylation in murine colon 26 (C26) carcinoma cells, determined graphically from dose response curve; for % Inhibition @ 0.1 μM / % Inhibition @ 1 μM: ERK phosphorylation in C26 cells
Description: The evaluation of the compounds as MEK inhibitors was performed in an assay that measures their ability to inhibit phosphorylation of MAP kinase […]) in murine colon 26 (C26) carcinoma cells. Since ERK1 and ERK2 represent the only known substrates for MEK, measurement of inhibition of ERK phosphorylation in cells provides direct readout of cellular MEK inhibition by the compounds of the invention. Briefly, the assay involves treating exponentially growing C26 cells with varying concentrations of the test compound (or vehicle control) for […] at 37° C. Cells are then rinsed free of compound/vehicle and lysed in a solution containing 70 mM NaCl, 50 mM glycerol phosphate, 10 mM HEPES, pH 7.4, 1% Triton X-100, 1 mM Na3VO4, 100 μM PMSF, 10 μM leupeptin and 10 μM pepstatin. Supernatants are then subjected to gel electrophoresis and Western blotting using a primary antibody recognizing dually phosphorylated ERK1 and ERK2. To evaluate total MAPK levels, blots were subsequently ‘stripped’ and re-probed with a 1:1 mixture of polyclonal antibodies recognizing unphosphorylated ERK1 and ERK2.

IC50 [nM] | Structure (SMILES) | % Inhibition @ 0.1 μM [%] | % Inhibition @ 1 μM [%]
2 | O=C(NOCCO)c1ccc(F)cc1Nc1ccc(I)cc1Cl [Example 4, 2-(2-Chloro-4-iodo-phenylamino)-4-fluoro-N-(2-hydroxy-ethoxy)-benzamide] |  | 
3 | Cc1cc(I)ccc1Nc1cc(F)ccc1C(=O)NOCCO [Example 5, 4-Fluoro-N-(2-hydroxy-ethoxy)-2-(4-iodo-2-methyl-phenylamino)-benzamide] |  | 
45 | O=C(NOCCO)c1cc(F)c(F)cc1Nc1ccc(I)cc1Cl [Example 17, 2-(2-Chloro-4-iodo-phenylamino)-4,5-difluoro-N-(2-hydroxy-ethoxy)-benzamide] |  | 
4.4 | O=C(NOCCCO)c1ccc(F)c(F)c1Nc1ccc(I)cc1F [Example 32, 3,4-Difluoro-2-(2-fluoro-4-iodo-phenylamino)-N-(3-hydroxy-propoxy)-benzamide] |  | 
1.4 | O=C(NOCC(O)CO)c1cc(Br)c(F)c(F)c1Nc1ccc(I)cc1F (stereo not shown) [Example 40, 5-Bromo-N-(2,3-dihydroxy-propoxy)-3,4-difluoro-2-(2-fluoro-4-iodo-phenylamino)-benzamide] |  | 
1.2 | O=C(NOC[C@H](O)CO)c1cc(Cl)c(F)c(F)c1Nc1ccc(I)cc1F [Example 53] |  | 
240 | O=C(NOCCNc1ccccc1)c1ccc(F)c(F)c1Nc1ccc(I)cc1Cl [Example 77, 2-(2-Chloro-4-iodo-phenylamino)-3,4-difluoro-N-(2-phenylamino-ethoxy)-benzamide] |  | 
20 | CNCCONC(=O)c1ccc(F)c(F)c1Nc1ccc(I)cc1F [Example 79, 3,4-Difluoro-2-(2-fluoro-4-iodo-phenylamino)-N-(2-methylamino-ethoxy)-benzamide, hydrochloride salt] |  | 
490 | Cc1cc(I)ccc1Nc1c(C(=O)NOCCNCC(F)(F)F)ccc(F)c1F [Example 80, 3,4-Difluoro-2-(4-iodo-2-methyl-phenylamino)-N-[2-(2,2,2-trifluoro-ethylamino)-ethoxy]-benzamide; hydrochloride] |  | 
134 | CN(OCCO)C(=O)c1ccc(F)cc1Nc1ccc(I)cc1Cl [Example 81, 2-(2-Chloro-4-iodo-phenylamino)-4-fluoro-N-(2-hydroxy-ethoxy)-N-methyl-benzamide] |  | 
> 1000 | CC(=O)OCCONC(=O)c1cc(F)c(F)c(F)c1Nc1ccc(I)cc1C [Example 82, Acetic acid 2-({1-[3,4,5-trifluoro-2-(4-iodo-2-methyl-phenylamino)-phenyl]-methanoyl}-aminooxy)-ethyl ester] |  | 
19 | O=C(NOCC(O)CO)c1ccc(F)c(F)c1Nc1ccc(I)cc1Cl (stereo not shown) [Example 86, 2-(2-Chloro-4-iodo-phenylamino)-N-(2,3-dihydroxy-propoxy)-3,4-difluoro-benzamide] |  | 
25 | O=C(NOCC(O)CO)c1cc(F)c(F)c(F)c1Nc1ccc(I)cc1Cl (stereo not shown) [Example 87, 2-(2-Chloro-4-iodo-phenylamino)-N-(2,3-dihydroxy-propoxy)-3,4,5-trifluoro-benzamide] |  | 
110 | O=C(NOCC(O)CO)c1cc(Br)c(F)c(F)c1Nc1ccc(I)cc1Cl (stereo not shown) [Example 88, 5-Bromo-2-(2-chloro-4-iodo-phenylamino)-N-(2,3-dihydroxy-propoxy)-3,4-difluoro-benzamide] |  | 
12 | Cc1cc(I)ccc1Nc1c(C(=O)NOCC(O)CO)ccc(F)c1F (stereo not shown) [Example 89, N-(2,3-Dihydroxy-propoxy)-3,4-difluoro-2-(4-iodo-2-methyl-phenylamino)-benzamide] |  | 
40 | Cc1cc(I)ccc1Nc1c(C(=O)NOCC(O)CO)cc(F)c(F)c1F (stereo not shown) [Example 90, N-(2,3-Dihydroxy-propoxy)-3,4,5-trifluoro-2-(4-iodo-2-methyl-phenylamino)-benzamide] |  | 
 | Cc1cc(I)ccc1Nc1c(C(=O)NOCC(O)CO)cc(Br)c(F)c1F (stereo not shown) [Example 91, 5-Bromo-N-(2,3-dihydroxy-propoxy)-3,4-difluoro-2-(4-iodo-2-methyl-phenylamino)-benzamide] | 89.4 | 98.9

IC50 [nM] | Structure (SMILES) | % Inhibition @ 0.1 μM [%] | % Inhibition @ 1 μM [%]
 | O=C(NOCCC(O)CO)c1ccc(F)c(F)c1Nc1ccc(I)cc1Cl (stereo not shown) [Example 92, 2-(2-Chloro-4-iodo-phenylamino)-N-(3,4-dihydroxy-butoxy)-3,4-difluoro-benzamide] | 51.8 | 92.4
 | O=C(NOCCC(O)CO)c1cc(F)c(F)c(F)c1Nc1ccc(I)cc1Cl (stereo not shown) [Example 93, 2-(2-Chloro-4-iodo-phenylamino)-N-(3,4-dihydroxy-butoxy)-3,4,5-trifluoro-benzamide] | 4 | 79.1
 | Cc1cc(I)ccc1Nc1c(C(=O)NOCCC(O)CO)cc(F)c(F)c1F (stereo not shown) [Example 96, N-(3,4-Dihydroxy-butoxy)-3,4,5-trifluoro-2-(4-iodo-2-methyl-phenylamino)-benzamide] | 35 | 87.1
 | Cc1cc(I)ccc1Nc1c(C(=O)NOCCC(O)CO)cc(Br)c(F)c1F (stereo not shown) [Example 97, 5-Bromo-N-(3,4-dihydroxy-butoxy)-3,4-difluoro-2-(4-iodo-2-methyl-phenylamino)-benzamide] | 30.1 | 91.9
11 | O=C(NOCCCO)c1cc(Br)c(F)c(F)c1Nc1ccc(I)cc1Cl [Example 98, 5-Bromo-2-(2-chloro-4-iodo-phenylamino)-3,4-difluoro-N-(3-hydroxy-propoxy)-benzamide] |  | 
18 | O=C(NOCCCO)c1ccc(F)c(F)c1Nc1ccc(I)cc1Cl [Example 99, 2-(2-Chloro-4-iodo-phenylamino)-3,4-difluoro-N-(3-hydroxy-propoxy)-benzamide] |  | 
58 | Cc1cc(I)ccc1Nc1c(C(=O)NOCCCO)cc(F)c(F)c1F [Example 100, 3,4,5-Trifluoro-N-(3-hydroxy-propoxy)-2-(4-iodo-2-methyl-phenylamino)-benzamide] |  | 
225 | O=C(NOCCCO)c1cc(F)c(F)c(F)c1Nc1ccc(I)cc1Cl [Example 101, 2-(2-Chloro-4-iodo-phenylamino)-3,4,5-trifluoro-N-(3-hydroxy-propoxy)-benzamide] |  | 
275 | Cc1cc(I)ccc1Nc1c(C(=O)NOCCCO)cc(Br)c(F)c1F [Example 102, 5-Bromo-3,4-difluoro-N-(3-hydroxy-propoxy)-2-(4-iodo-2-methyl-phenylamino)-benzamide] |  | 
487 | Cc1cc(I)ccc1Nc1c(C(=O)NOCCCO)ccc(F)c1F [Example 103, 3,4-Difluoro-N-(3-hydroxy-propoxy)-2-(4-iodo-2-methyl-phenylamino)-benzamide] |  | 
 | CCC(O)CONC(=O)c1cc(F)c(F)c(F)c1Nc1ccc(I)cc1Cl (stereo not shown) [Example 105, 2-(2-Chloro-4-iodo-phenylamino)-3,4,5-trifluoro-N-(2-hydroxy-butoxy)-benzamide] | 3.3 | 71.3
 | CCC(O)CONC(=O)c1cc(F)c(F)c(F)c1Nc1ccc(I)cc1C (stereo not shown) [Example 106, 3,4,5-Trifluoro-N-(2-hydroxy-butoxy)-2-(4-iodo-2-methyl-phenylamino)-benzamide] | 13.2 | 81.6
 | CCC(O)CONC(=O)c1cc(Br)c(F)c(F)c1Nc1ccc(I)cc1C (stereo not shown) [Example 108, 5-Bromo-3,4-difluoro-N-(2-hydroxy-butoxy)-2-(4-iodo-2-methyl-phenylamino)-benzamide] | 74 | 94.6
 | CCC(O)CONC(=O)c1cc(Cl)c(F)c(F)c1Nc1ccc(I)cc1C (stereo not shown) [Example 111, 5-Chloro-3,4-difluoro-N-(2-hydroxy-butoxy)-2-(4-iodo-2-methyl-phenylamino)-benzamide] | 78 | 93.4
 | CCC(O)CONC(=O)c1ccc(F)c(F)c1Nc1ccc(I)cc1F (stereo not shown) [Example 112, 3,4-Difluoro-2-(2-fluoro-4-iodo-phenylamino)-N-(2-hydroxy-butoxy)-benzamide] | 95.2 | 95.5
 | CCC(O)CONC(=O)c1cc(Br)c(F)c(F)c1Nc1ccc(I)cc1F (stereo not shown) [Example 113, 5-Bromo-3,4-difluoro-2-(2-fluoro-4-iodo-phenylamino)-N-(2-hydroxy-butoxy)-benzamide] | 89.9 | 94.6

Structure (SMILES) | IC50 [nM] | % Inhibition @ 0.1 μM [%] | % Inhibition @ 1 μM [%]
O=C(NOCCC(O)CO)c1cc(Br)c(F)c(F)c1Nc1ccc(I)cc1Cl (stereo not shown) [Example 94, 5-Bromo-2-(2-chloro-4-iodo-phenylamino)-N-(3,4-dihydroxy-butoxy)-3,4-difluoro-benzamide] | 280 |  | 
Cc1cc(I)ccc1Nc1c(C(=O)NOCCC(O)CO)ccc(F)c1F (stereo not shown) [Example 95, N-(3,4-Dihydroxy-butoxy)-3,4-difluoro-2-(4-iodo-2-methyl-phenylamino)-benzamide] | 190 |  | 
CCC(O)CONC(=O)c1ccc(F)c(F)c1Nc1ccc(I)cc1Cl (stereo not shown) [Example 104, 2-(2-Chloro-4-iodo-phenylamino)-3,4-difluoro-N-(2-hydroxy-butoxy)-benzamide] | 24 |  | 
CCC(O)CONC(=O)c1cc(Br)c(F)c(F)c1Nc1ccc(I)cc1Cl (stereo not shown) [Example 107, 5-Bromo-2-(2-chloro-4-iodo-phenylamino)-3,4-difluoro-N-(2-hydroxy-butoxy)-benzamide] | 76 |  | 
CCC(O)CONC(=O)c1ccc(F)c(F)c1Nc1ccc(I)cc1C (stereo not shown) [Example 109, 3,4-Difluoro-N-(2-hydroxy-butoxy)-2-(4-iodo-2-methyl-phenylamino)-benzamide] | 38 |  | 
